Legend:
[1] = for amount of peripheral fibrosis surrounding the microsphere depot in the subcutis / intensity of the granulomatous inflammatory reaction within the microsphere mass: co-administration with EPO-containing microparticles; for color of the skin overlying microsphere depots: rat, in vivo
Protocol: Animals were anesthetized with 5% halothane. Each animal was shaved and the back swabbed with alcohol. […] The microparticles were prepared as described above. The microparticles were injected into an interscapular site using a 21 gauge thinwall needle attached to a 1 mL syringe. Animals were dosed to receive a total of 10,000 U EPO either alone (Group A) or in combination with a total of 5 mg of hydrocortisone acetate (Group B), or 1 mg (Group C) or 5 mg (Group D) of triamcinolone diacetate. Animals were followed for 35 days post implantation.

[2] = Example 3: serum EPO levels by ELISA; type: in vivo, rat; settings: 10,000 U EPO microparticles plus 100 mg placebo microparticles (A), 5 mg triamcinolone acetonide admixed with 100 mg placebo microparticles (B) or 100 mg 20% hydrocortisone microparticles (C)
Protocol: (§1) Animals were dosed to receive a total of 10,000 Units of EPO in combination with a total of 100 mg of placebo microparticles (Group A), 5 mg of triamcinolone acetonide and 100 mg of placebo microparticles admixed (Group B) and 100 mg of 20% w/w hydrocortisone-containing microparticles (Group C). Sample collection time points were pre-bleed, 1, 2, 6, 12, 19, and 26 days.
To evaluate EPO serum levels, 0.4 mL samples were collected via tail vein on the days specified in Table 3 (four animals per group). After clotting, the samples were centrifuged and frozen (−70° C.).

[3] = Example 3: hematocrit testing; type: in vivo, rat; settings: day 19 (maximum for corticosteroid groups); Groups A, B, C of Table 3
Protocol: as §1
To evaluate EPO serum levels, 0.4 mL samples were collected via tail vein on the days specified in Table 3 (four animals per group). After clotting, the samples were centrifuged and frozen (−70° C.). Serum EPO levels were quantitated by ELISA (R&D Systems), according to the manufacturer's instructions (Cat. No. DEP00, and the data were normalized for dose and body weight. Starting on day 12, serum samples were also assessed for EPO antibody levels weekly, using an ELISA This assay detects all antibody subclasses inasmuch as the detecting antibody is reactive with both immunoglobulin heavy (γ) and light chains. Hematocrit analyses were carried out as described in Example 1, and were tested at the following intervals relative to time of microsparticle administration: pre-bleed, 1, 2, 6, 12, 19, and 26 days.

anti-EPO antibody = experiment: Example 3: immunogenicity, anti-EPO antibody ELISA of sera; type: in vivo, rat
[4] = Example 1: hematocrit testing; type: in vivo, rat; settings: day 36; EPO microparticles plus 1 mg secondary agent (Group C)
Protocol: Animals were anesthetized with 5% halothane. […] The microparticles were prepared as described above. […] Hematocrits were evaluated manually following centrifugation for 5 minutes at 8000 rpm (on four animals per group) using a capillary tube.

| Compound | amount of peripheral fibrosis surrounding the microsphere depot in the subcutis [1] | intensity of the granulomatous inflammatory reaction within the microsphere mass [1] | color of the skin overlying microsphere depots [1] | average serum EPO levels (steady state) between day 6 and day 19 [2] [mU/mL] | hematocrit values [3] | incidence of animals with anti-EPO antibodies (anti-EPO antibody; day 19, n=4/group) | anti-EPO antibody titer (anti-EPO antibody; day 19, the one positive animal of Group B) | EPO antibody titer as percentage of the titer in the control group (anti-EPO antibody; day 33) | incidence of animals with anti-EPO antibodies (anti-EPO antibody; day 33) [%] | hematocrit values [4] |
| --- | --- | --- | --- | --- | --- | --- | --- | --- | --- | --- |
| CC(=O)OCC(=O)[C@@]1(O)CC[C@H]2[C@@H]3CCC4=CC(=O)CC[C@]4(C)[C@H]3[C@@H](O)C[C@@]21C [hydrocortisone acetate] | diminished | reduced | pallid in most rats |  |  |  |  |  |  |  |
| CC1(C)O[C@@H]2C[C@H]3[C@@H]4CCC5=CC(=O)C=C[C@]5(C)[C@@]4(F)[C@@H](O)C[C@]3(C)[C@]2(C(=O)CO)O1 [triamcinolone acetonide] |  |  |  | 148.6±102.9 | 69.3%±3.3 | only one animal | 1800 | about 50% | 75 |  |
| CC(=O)OCC(=O)[C@@]1(O)[C@H](OC(C)=O)C[C@H]2[C@@H]3CCC4=CC(=O)C=C[C@]4(C)[C@@]3(F)[C@@H](O)C[C@@]21C [triamcinolone diacetate] | diminished | reduced | pallid in most rats |  |  |  |  |  |  | mid-60% |

Source: patent US20040121009A1, “Method of modifying the release profile of sustained release compositions” (Alkermes Controlled Therapeutics, Inc., priority 2002, published 2004)
